Drawing on ChEMBL document CHEMBL1153103, “Bioisosterism of urea-based GCPII inhibitors: Synthesis and structure-activity relationship studies” (Bioorg Med Chem Lett, 2010), this text covers Ki for 39 compounds.

The structures appear in SMILES notation.

T1 sequence (Q04609 whole entry): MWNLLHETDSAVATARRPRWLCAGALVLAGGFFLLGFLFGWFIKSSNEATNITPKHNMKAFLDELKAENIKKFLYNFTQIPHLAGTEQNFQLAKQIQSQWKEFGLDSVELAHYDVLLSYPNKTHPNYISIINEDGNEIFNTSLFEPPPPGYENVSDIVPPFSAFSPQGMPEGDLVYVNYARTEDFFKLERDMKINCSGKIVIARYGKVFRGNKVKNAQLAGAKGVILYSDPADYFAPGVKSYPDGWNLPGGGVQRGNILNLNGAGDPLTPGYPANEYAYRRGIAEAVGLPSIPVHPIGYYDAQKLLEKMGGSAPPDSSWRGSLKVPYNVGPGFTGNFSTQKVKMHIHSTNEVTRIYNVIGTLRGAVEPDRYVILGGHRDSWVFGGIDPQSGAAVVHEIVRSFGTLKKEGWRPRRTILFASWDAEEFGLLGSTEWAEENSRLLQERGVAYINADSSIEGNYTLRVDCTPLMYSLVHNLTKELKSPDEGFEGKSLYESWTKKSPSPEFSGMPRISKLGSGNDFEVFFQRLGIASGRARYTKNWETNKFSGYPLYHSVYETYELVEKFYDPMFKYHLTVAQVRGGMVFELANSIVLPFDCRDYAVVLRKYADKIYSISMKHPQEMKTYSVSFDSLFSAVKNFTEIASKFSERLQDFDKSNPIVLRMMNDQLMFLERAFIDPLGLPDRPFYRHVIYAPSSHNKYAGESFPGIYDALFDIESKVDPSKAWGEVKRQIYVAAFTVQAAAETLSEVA

The first assay addresses T1, Glutamate carboxypeptidase 2 (Homo sapiens, UniProt Q04609). In words: Inhibition of human cloned glutamate carboxypeptidase 2.
As a reminder, the Ki is a measure of affinity in units of concentration, obtained from inhibition or displacement. A low value points to tighter binding. Take `NC(=O)C[C@H](NC(=O)N[C@@H](CCCCNC(=O)c1ccc(I)cc1)C(=O)O)C(=O)O`: affinity was put at a Ki of 0.32 µM.

As for `CCC[C@H](NC(=O)N[C@@H](CCCCNC(=O)c1ccc(I)cc1)C(=O)O)C(=O)O`, the affinity, expressed as Ki, was 0.0523 µM.

Turning to `O=C(N[C@@H](CCCCNC(=O)c1ccc(I)cc1)C(=O)O)N[C@@H](Cc1cscn1)C(=O)O`, the Ki is 0.0161 µM.

`COc1cc(C(NC(=O)N[C@@H](CCCCNC(=O)c2ccc(I)cc2)C(=O)O)C(=O)O)ccc1O` (some centres undefined) came in with a Ki of 0.285 µM.

As to `O=C(O)CCCNC(=O)N[C@@H](CCCCNC(=O)c1ccc(I)cc1)C(=O)O`, the inhibitory constant (Ki) worked out at 3.43 µM.

With `CC(=O)SCCC[C@H](NC(=O)N[C@@H](CCCCNC(=O)c1ccc(I)cc1)C(=O)O)C(=O)O`, the Ki came out at 0.0241 µM.

`O=C(N[C@@H](CCCCNC(=O)c1ccc(I)cc1)C(=O)O)N[C@@H](CC1CO1)C(=O)O` (some centres undefined) had an inhibition constant (Ki) of 0.254 µM.

`O=C(N[C@@H](CCCCNC(=O)c1ccc(I)cc1)C(=O)O)N[C@H](Cc1ccco1)C(=O)O`: the Ki was 0.794 µM.

In turn, `O=C(N[C@@H](CCCCNC(=O)c1ccc(I)cc1)C(=O)O)N[C@H](C(=O)O)c1ccc(O)cc1` had a Ki of 0.0851 µM.

Compound `O=C(N[C@@H](CCCCNC(=O)c1ccc(I)cc1)C(=O)O)N[C@@H](Cc1ccncc1)C(=O)O` showed a Ki of 0.105 µM.

Regarding `N#CC[C@H](NC(=O)N[C@@H](CCCCNC(=O)c1ccc(I)cc1)C(=O)O)C(=O)O`, the affinity, expressed as Ki, was 0.132 µM.

`C#CC[C@H](NC(=O)N[C@@H](CCCCNC(=O)c1ccc(I)cc1)C(=O)O)C(=O)O`: affinity was put at a Ki of 0.0053 µM.

`O=C(N[C@@H](CCCCNC(=O)c1ccc(I)cc1)C(=O)O)N[C@@H](Cc1ccco1)C(=O)O` showed a Ki of 0.0053 µM.

On to `O=C(O)CNC(=O)N[C@@H](CCCCNC(=O)c1ccc(I)cc1)C(=O)O`, for which the Ki amounted to 1.32 µM.

`O=C(N[C@@H](CCCCNC(=O)c1ccc(I)cc1)C(=O)O)N[C@@H](Cc1cccs1)C(=O)O` yielded a Ki of 0.0162 µM.

In turn, `O=C(N[C@@H](CCCCNC(=O)c1ccc(I)cc1)C(=O)O)N[C@H](Cc1cccs1)C(=O)O` had an inhibition constant (Ki) of 0.795 µM.

In turn, `O=C(N[C@@H](CCCCNC(=O)c1ccc(I)cc1)C(=O)O)N[C@@H](Cc1cccnc1)C(=O)O` had a Ki of 0.0972 µM.

For `O=C(N[C@@H](CCCCNC(=O)c1ccc(I)cc1)C(=O)O)NC1(C(=O)O)CC1`, the Ki is 0.318 µM.

The next assay concerns the target T1, Glutamate carboxypeptidase 2. In words: Inhibition of glutamate carboxypeptidase 2 in human LNCaP cells by fluorescence based NAALADase assay. It is filed as cell-based.
Regarding `CC(C)C[C@H](NC(=O)N[C@@H](Cc1ccc(O)cc1)C(=O)O)C(=O)O`, the affinity, expressed as Ki, was 0.7 µM.

Take `COc1cc(C(NC(=O)N[C@@H](CC(C)C)C(=O)OC(C)C)C(=O)O)ccc1O` (some centres undefined): the Ki stood at 0.081 µM.

`COC(=O)[C@H](CC(C)C)NC(=O)NC(C(=O)O)c1ccc(F)c(OC)c1` (some centres undefined): the Ki is greater than 1000 µM.

`COc1cc(C(NC(=O)N[C@@H](CC(C)C)C(=O)O)C(=O)O)ccc1O` (some centres undefined): the Ki is 0.25 µM.

Turning to `COC(=O)[C@H](CC(C)C)NC(=O)NC(C(=O)O)c1ccc(O)c(OC)c1` (some centres undefined), the Ki was found to be 0.153 µM.

The compound `COC(=O)[C@H](CC(C)C)NC(=O)N[C@@H](CCCSC)C(=O)O` had a Ki greater than 1000 µM.

Regarding `CC(C)C[C@H](NC(=O)NC(C(=O)O)c1cccc(O)c1)C(=O)O` (some centres undefined), the Ki is greater than 1000 µM.

Turning to `CC(C)C[C@H](NC(=O)N[C@H](C(=O)O)c1ccc(O)cc1)C(=O)O`, the affinity corresponds to a Ki of 0.775 µM.

`COC(=O)[C@H](CC(C)C)NC(=O)N[C@@H](Cc1cccc(O)c1)C(=O)O`: the Ki is greater than 1000 µM.

In turn, `COC(=O)[C@H](CC(C)C)NC(=O)N[C@H](C(=O)O)c1ccc(O)c(Br)c1` registered a Ki of 0.4 µM.

Turning to `CC(C)C[C@H](NC(=O)N[C@@H](Cc1ccc(O)c(I)c1)C(=O)O)C(=O)O`, the Ki is 13 µM.

In turn, `CC(C)C[C@H](NC(=O)NC(C(=O)O)c1cc(O)cc(O)c1)C(=O)O` (some centres undefined) displayed a Ki of 13 µM.

`CC(C)C[C@H](NC(=O)NC(C(=O)O)c1ccc(O)c(I)c1)C(=O)OC(C)C` (some centres undefined) returned a Ki of 0.275 µM.

Compound `CSCCC[C@H](NC(=O)N[C@@H](CC(C)C)C(=O)O)C(=O)O` showed a Ki of 3.5 µM.

In turn, `COC(=O)[C@H](CC(C)C)NC(=O)N[C@@H](Cc1cccc(C(=O)O)c1)C(=O)O` showed a Ki greater than 1000 µM.

On to `COC(=O)[C@H](CC(C)C)NC(=O)N[C@H](C(=O)O)c1ccc(O)c(I)c1`, for which the Ki was 0.475 µM.

In the case of `CC(C)C[C@H](NC(=O)N[C@@H](Cc1cccc(C(=O)O)c1)C(=O)O)C(=O)O`, the affinity, expressed as Ki, was 3 µM.

On to `COC(=O)[C@H](CC(C)C)NC(=O)NC(C(=O)O)c1cccc(O)c1` (some centres undefined), for which the Ki was greater than 1000 µM.

`COC(=O)[C@H](CC(C)C)NC(=O)NC(C(=O)O)c1ccc(O)c(F)c1` (some centres undefined) showed a Ki of 3 µM.

Compound `COC(=O)[C@H](CC(C)C)NC(=O)N[C@H](C(=O)O)c1cc(Br)c(O)c(Br)c1` returned an inhibitory constant (Ki) of 0.575 µM.

As for `COC(=O)[C@H](CC(C)C)NC(=O)N[C@@H](CCC(N)=O)C(=O)O`, the Ki stood at 7.5 µM.
